Laboratory results: patent US20170355691A1, “PESTICIDALLY ACTIVE HETEROCYCLIC DERIVATIVES WITH SULPHUR CONTAINING SUBSTITUENTS” (Syngenta Participations AG, priority 2015, published 2017)

Legend:
[1] = test system: Diabrotica balteata (corn root worm); experiment: Activity against Diabrotica balteata, maize sprouts (Example B3); assay type: in vivo; conditions: 96 h, L2 larvae on maize sprouts, 4 days after infestation, read-out: effect in at least one of the two categories (mortality or growth inhibition)
Method: Example B3: Activity Against Diabrotica balteata (Corn Root Worm)
Maize sprouts, placed on an agar layer in 24-well microtiter plates were treated with aqueous test solutions prepared from 10′000 ppm DMSO stock solutions by spraying. After drying, the plates were infested with L2 larvae (6 to 10 per well). The samples were assessed for mortality and growth inhibition in comparison to untreated samples 4 days after infestation. The following compounds gave an effect of at least 80% in at least one of the two categories (mortality or growth inhibition) at an application rate of 200 ppm: P1.1, P1.2, P1.6, P1.7, P1.8, P1.9, P1.10, P1.13, P1.14, P1.15, P1.16, P1.17 and P1.18.

[2] = test system: Tetranychus urticae (two-spotted spider mite); experiment: whole plant or invertebrate; assay type: in vivo; conditions: foliar, 192 h
Method: Example B8: Activity Against Tetranychus urticae (Two-Spotted Spider Mite)
Bean leaf discs on agar in 24-well microtiter plates were sprayed with aqueous test solutions prepared from 10′000 ppm DMSO stock solutions. After drying the leaf discs were infested with a mite population of mixed ages. The samples were assessed for mortality on mixed population (mobile stages) 8 days after infestation.

[3] = test system: Spodoptera littoralis (Egyptian cotton leaf worm); experiment: Activity against Spodoptera littoralis, cotton leaf disc spray (Example B1); assay type: in vivo; conditions: foliar, 72 h, L1 larvae on cotton leaf discs, 3 days after infestation, read-out: control in at least one of the three categories (mortality, anti-feedancy or growth inhibition)
Method: Example B1: Activity Against Spodoptera littoralis (Egyptian Cotton Leaf Worm)
Cotton leaf discs were placed on agar in 24-well microtiter plates and sprayed with aqueous test solutions prepared from 10′000 ppm DMSO stock solutions. After drying the leaf discs were infested with five L1 larvae. The samples were assessed for mortality, anti-feedant effect, and growth inhibition in comparison to untreated samples 3 days after infestation. Control of Spodoptera littoralis by a test sample is when at least one of mortality, anti-feedant effect, and growth inhibition is higher than the untreated sample. The following compounds gave an effect of at least 80% control in at least one of the three categories (mortality, anti-feedancy or growth inhibition) at an application rate of 200 ppm: P1.2, P1.3, P1.6, P1.7, P1.8, P1.9, P1.10, P1.12, P1.13, P1.14, P1.15, P1.16, P1.17 and P1.18.

[4] = test system: Plutella xylostella (diamond back moth); experiment: Activity against Plutella xylostella, artificial diet (Example B2); assay type: in vivo; conditions: 120 h, L2 larvae on artificial diet, 5 days after infestation, read-out: effect in at least one of the two categories (mortality or growth inhibition)
Method: Example B2: Activity Against Plutella xylostella (Diamond Back Moth)
24-well microtiter plates with artificial diet were treated with aqueous test solutions prepared from 10′000 ppm DMSO stock solutions by pipetting. After drying, the plates were infested with L2 larvae (10 to 15 per well). The samples were assessed for mortality and growth inhibition in comparison to untreated samples 5 days after infestation. The following compounds gave an effect of at least 80% in at least one of the two categories (mortality or growth inhibition) at an application rate of 200 ppm: P1.3, P1.6, P1.7, P1.8, P1.9, P1.13, P1.14, P1.15, P1.16, P1.17 and P1.18.

[5] = test system: Myzus persicae (green peach aphid); experiment: Activity against Myzus persicae, sunflower leaf disc spray (Example B5); assay type: in vivo; conditions: foliar, 144 h, mixed-age aphid population on sunflower leaf discs, 6 days after infestation
Method: Example B5: Activity Against Myzus persicae (Green Peach Aphid)
(§1) Sunflower leaf discs were placed on agar in a 24-well microtiter plate and sprayed with aqueous test solutions prepared from 10′000 ppm DMSO stock solutions. After drying, the leaf discs were infested with an aphid population of mixed ages. The samples were assessed for mortality 6 days after infestation.

[6] = test system: Euschistus heros (neotropical brown stink bug); experiment: Activity against Euschistus heros, soybean leaf spray (Example B7); assay type: in vivo; conditions: 120 h, N-2 nymphs on soybean leaf, 5 days after infestation
Method: Example B7: Activity Against Euschistus heros (Neotropical Brown Stink Bug)
Soybean leaf on agar in 24-well microtiter plates were sprayed with aqueous test solutions prepared from 10′000 ppm DMSO stock solutions. After drying the leaf were infested with N-2 nymphs. The samples were assessed for mortality 5 days after infestation.

[7] = test system: Thrips tabaci (onion thrips); experiment: Activity against Thrips tabaci, sunflower leaf disc spray (Example B9); assay type: in vivo; conditions: foliar, 144 h, mixed-age thrips population on sunflower leaf discs, 6 days after infestation
Method: Example B9: Activity Against Thrips tabaci (Onion Thrips)
as §1, with “in” for “in a”, “plates” for “plate”, “drying” for “drying,”, “a thrips” for “an aphid”

[8] = test system: Bemisia tabaci (cotton white fly); experiment: Activity against Bemisia tabaci, cotton leaf disc spray (Example B6); assay type: in vivo; conditions: foliar, 144 h, adult white flies on cotton leaf discs, 6 days after incubation
Method: Example B6: Activity Against Bemisia tabaci (Cotton White Fly)
Cotton leaf discs were placed on agar in 24-well microtiter plates and sprayed with aqueous test solutions prepared from 10′000 ppm DMSO stock solutions. After drying the leaf discs were infested with adult white flies. The samples were checked for mortality 6 days after incubation.

[9] = test system: Spodoptera littoralis (Egyptian cotton leaf worm); experiment: Activity against Spodoptera littoralis, systemic via lettuce roots in agar (Example B4); assay type: in vivo; conditions: 144 h, 12.5 ppm in agar, uptake by lettuce roots, eggs, 6 days after infestation, read-out: control in at least one of the three categories (mortality, anti-feedancy or growth inhibition)
Excerpt: Example B4: Activity Against Spodoptera littoralis (Egyptian Cotton Leaf Worm)
Test compounds were applied by pipette from 10′000 ppm DMSO stock solutions into 24-well plates and mixed with agar. Lettuce seeds were placed on the agar and the multi well plate was closed by another plate which contains also agar. After 7 days the roots have absorbed the compound and the lettuce has grown into the lid plate. The lettuce leafs were now cut off into the lid plate. Spodoptera eggs were pipetted through a plastic stencil on a humid gel blotting paper and the plate closed with it. The samples were assessed for mortality, anti-feedant effect and growth inhibition in comparison to untreated samples 6 days after infestation. The following compound gave an effect of at least 80% control in at least one of the three categories (mortality, anti-feedancy or growth inhibition) at an application rate of 12.5 ppm: P1.17 and P1.18.

CCSc1cc(C(F)(F)F)cnc1-n1ncc(-c2cccc(C(F)(F)F)c2)c1C [Compound P1.1, 3-ethylsulfanyl-2-[5-methyl-4-[3-(trifluoromethyl)phenyl]pyrazol-1-yl]-5-(trifluoromethyl)pyridine] showed a percent effect (mortality or growth inhibition) at 200 ppm [1] of no less than 80% and a mortality at 200 ppm [2] of no less than 80%.

Compound CCS(=O)(=O)c1cc(C(F)(F)F)cnc1-n1ncc(-c2cccc(C(F)(F)F)c2)c1C [Compound P1.2, 3-ethylsulfonyl-2-[5-methyl-4-[3-(trifluoromethyl)phenyl]pyrazol-1-yl]-5-(trifluoromethyl)pyridine] has a percent effect (mortality or growth inhibition) at 200 ppm [1] of no less than 80% and a percent control (mortality, anti-feedant effect or growth inhibition) at 200 ppm [3] of no less than 80%.

For CCS(=O)(=O)c1cc(C(F)(F)F)cnc1-n1cc(-c2ccc(C(F)(F)F)cc2)cn1 [Compound P1.3, 3-ethylsulfonyl-5-(trifluoromethyl)-2-[4-[4-(trifluoromethyl)phenyl]pyrazol-1-yl]pyridine], the percent control (mortality, anti-feedant effect or growth inhibition) at 200 ppm [3] was no less than 80% and the percent effect (mortality or growth inhibition) at 200 ppm [4] was no less than 80%.

For CCSc1cc(C(F)(F)F)cnc1-n1ncc(-c2ccc(C(F)(F)F)cc2)c1C [Compound P1.4], the melting point was 113 to 114 °C.

Compound CCS(=O)(=O)c1cc(C(F)(F)F)cnc1-n1ncc(-c2ccc(C(F)(F)F)cc2)c1C [Compound P1.5] has a melting point of 152 to 154 °C.

With CCS(=O)(=O)c1cc(C(F)(F)F)cnc1-n1cc(-c2cccc(C(F)(F)F)c2)cn1 [Compound P1.6] the percent effect (mortality or growth inhibition) at 200 ppm [1] was no less than 80%, the percent control (mortality, anti-feedant effect or growth inhibition) at 200 ppm [3] was no less than 80% and the percent effect (mortality or growth inhibition) at 200 ppm [4] was no less than 80%.

For CCS(=O)(=O)c1cc(C(F)(F)F)cnc1-n1cc(-c2ccc(C(F)(F)F)nc2)cn1 [Compound P1.7], the percent effect (mortality or growth inhibition) at 200 ppm [1] was no less than 80%, the percent control (mortality, anti-feedant effect or growth inhibition) at 200 ppm [3] was no less than 80% and the percent effect (mortality or growth inhibition) at 200 ppm [4] was no less than 80%.

Work on CCS(=O)(=O)c1cc(C(F)(F)F)cnc1-n1cc(-c2cc(C(F)(F)F)ccn2)cn1 [Compound P1.8] yielded a percent effect (mortality or growth inhibition) at 200 ppm [1] of no less than 80%, a percent control (mortality, anti-feedant effect or growth inhibition) at 200 ppm [3] of no less than 80% and a percent effect (mortality or growth inhibition) at 200 ppm [4] of no less than 80%.

Work on CCS(=O)(=O)c1cc(C(F)(F)F)ccc1-n1cc(-c2cccc(C(F)(F)F)c2)cn1 [Compound P1.9] yielded a percent effect (mortality or growth inhibition) at 200 ppm [1] of no less than 80%, a percent control (mortality, anti-feedant effect or growth inhibition) at 200 ppm [3] of no less than 80% and a percent effect (mortality or growth inhibition) at 200 ppm [4] of no less than 80%.

In the case of CCS(=O)(=O)c1cc(C(F)(F)F)ccc1-n1cc(-c2cc(C(F)(F)F)ccn2)cn1 [Compound P1.10, 2-[1-[2-ethylsulfonyl-4-(trifluoromethyl)phenyl]pyrazol-4-yl]-4-(trifluoromethyl)pyridine], the percent effect (mortality or growth inhibition) at 200 ppm [1] is reported as no less than 80%, the percent control (mortality, anti-feedant effect or growth inhibition) at 200 ppm [3] is reported as no less than 80% and the mortality at 200 ppm [5] is reported as no less than 80%.

CCS(=O)(=O)c1cc(C(F)(F)F)cnc1-n1cc(-c2ccc(SC(F)(F)F)cc2)cn1 [Compound P1.11] gave a melting point of 181 to 182 °C.

CCS(=O)(=O)c1cc(C(F)(F)F)cnc1-n1cc(-c2cccc(SC(F)(F)F)c2)cn1 [Compound P1.12] gave a percent control (mortality, anti-feedant effect or growth inhibition) at 200 ppm [3] of no less than 80%.

For CCS(=O)(=O)c1cc(C(F)(F)F)ccc1-n1cc(-c2ccc(C(F)(F)F)cc2)cn1 [Compound P1.13], the percent effect (mortality or growth inhibition) at 200 ppm [1] was no less than 80%, the percent control (mortality, anti-feedant effect or growth inhibition) at 200 ppm [3] was no less than 80% and the percent effect (mortality or growth inhibition) at 200 ppm [4] was no less than 80%. The mortality at 200 ppm [6] was no less than 80%.

For CCS(=O)(=O)c1cc(C(F)(F)F)ccc1-n1ncc(-c2ccc(C(F)(F)F)cc2)c1C [Compound P1.15, 1-[2-ethylsulfonyl-4-(trifluoromethyl)phenyl]-5-methyl-4-[4-(trifluoromethyl)phenyl]pyrazole], the percent effect (mortality or growth inhibition) at 200 ppm [1] was no less than 80%, the percent control (mortality, anti-feedant effect or growth inhibition) at 200 ppm [3] was no less than 80% and the mortality at 200 ppm [7] was no less than 80%. The mortality at 200 ppm [8] was no less than 80%, the mortality at 200 ppm [5] was no less than 80% and the percent effect (mortality or growth inhibition) at 200 ppm [4] was no less than 80%.

With CCS(=O)(=O)c1cc(C(F)(F)F)ccc1-n1ncc(-c2cccc(C(F)(F)F)c2)c1C [Compound P1.16] the percent effect (mortality or growth inhibition) at 200 ppm [1] was no less than 80%, the percent control (mortality, anti-feedant effect or growth inhibition) at 200 ppm [3] was no less than 80% and the mortality at 200 ppm [8] was no less than 80%. It also gave a mortality at 200 ppm [5] of no less than 80%, a percent effect (mortality or growth inhibition) at 200 ppm [4] of no less than 80% and a mortality at 200 ppm [6] of no less than 80%.

For CCS(=O)(=O)c1cc(C(F)(F)F)ccc1-n1cc(-c2cncc(C(F)(F)F)c2)cn1 [Compound P1.17], the percent control (mortality, anti-feedant effect or growth inhibition) at 12.5 ppm [9] was no less than 80%, the percent effect (mortality or growth inhibition) at 200 ppm [1] was no less than 80% and the percent control (mortality, anti-feedant effect or growth inhibition) at 200 ppm [3] was no less than 80%. For the same compound, the mortality at 200 ppm [8] was no less than 80%, the mortality at 200 ppm [5] was no less than 80% and the percent effect (mortality or growth inhibition) at 200 ppm [4] was no less than 80%. For the same compound, the mortality at 200 ppm [6] was no less than 80%.

With CCS(=O)(=O)c1cc(C(F)(F)F)cnc1-n1cc(-c2cncc(C(F)(F)F)c2)cn1 [Compound P1.18] the percent control (mortality, anti-feedant effect or growth inhibition) at 12.5 ppm [9] was no less than 80%, the percent effect (mortality or growth inhibition) at 200 ppm [1] was no less than 80% and the percent control (mortality, anti-feedant effect or growth inhibition) at 200 ppm [3] was no less than 80%. For the same compound, the mortality at 200 ppm [5] was no less than 80% and the percent effect (mortality or growth inhibition) at 200 ppm [4] was no less than 80%.

Work on CCSc1cccnc1-n1cc(-c2ccc(C(F)(F)F)nc2)cn1 [Compound P1.19, 3-ethylsulfanyl-2-[4-[6-(trifluoromethyl)-3-pyridyl]pyrazol-1-yl]pyridine] yielded a melting point of 121 to 123 °C.
